In PubChem BioAssay (NCI):
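In this assay, cells in 96-well plates receive the compound at five concentrations for 48 hours. Endpoints are linearly interpolated between the surrounding concentrations. GI50: concentration for 50% inhibition of growth. TGI marks complete inhibition of growth.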

Legend:
Experiment in all cases: NCI anticancer screen, dose series, 48 h
[1] = system: A498 renal
[2] = system: UACC-62 melanoma
[3] = system: LOX IMVI melanoma
[4] = system: A549 NSCLC
[5] = system: MALME-3M melanoma
[6] = system: SK-MEL-5 melanoma
[7] = system: MCF7 breast
[8] = system: TK-10 renal
[9] = system: NCI-H23 lung
[10] = system: HL-60(TB) leukemia

SMILES	TGI [1] [µM]	TGI [2] [µM]	TGI [3] [µM]	TGI [4] [µM]	TGI [5] [µM]	TGI [6] [µM]	TGI [7] [µM]	TGI [8] [µM]	TGI [9] [µM]	TGI [10] [µM]	GI50 [1] [nM]	GI50 [5] [µM]	GI50 [8] [µM]	GI50 [2] [µM]	GI50 [3] [µM]	GI50 [4] [µM]	GI50 [6] [µM]	GI50 [7] [µM]	GI50 [9] [µM]	GI50 [10] [nM]
COc1cc(C=O)cc(C=Nc2ccc(Br)cc2)c1O	40.7	50.1	29.8	> 100	17.2	21.1	> 100	> 100	> 100	56.8										
COC1=C(OC)C(=O)C(Cc2c(Cl)nc3sccn23)=C(C)C1=O	28.5	20.6	10.4	25.1	13.7	17.5	26.8	26.6	29.2	6.98										
CC(C)OC(=O)C(NC(=O)C(CC(=O)OCc1ccccc1)NC(=O)OCc1ccccc1)NC(=O)C1C(C)(C)CCC1(C)C (stereo not drawn)	4.37	47.9	11.6	5.07	44.9	27.1	28.4	34.5	23.9	> 40.4										
O=C1Nc2noc(=O)nc2NO1	> 200	> 200	> 200	> 200	> 200	> 200	> 200	> 200	> 200	> 200										
CN(Cc1cnc2nc(N)nc(N)c2n1)c1ccc(C(=O)NC(CCC(=O)O)C(=O)O)c2ccccc12 (stereo not drawn)	> 1000	> 1000	> 1000	> 1000	> 1000	> 1000	> 1000	> 1000	> 1000	> 1000	15.2	> 1000	> 1000							
COc1cccc2c(=O)oc(-c3ccccc3C)nc12	> 100	> 100	36.6	> 100	> 100	57.7	> 100	> 100	> 100	> 100										
C/C(=N/NC(=S)Nc1ccc(C)cc1)c1ccccn1	15.9	2.64	20.8	14	8.71	2.29	16.6	6.77	16.1	0.608										
COc1ccc(C2C(=O)c3ccc(OC)cc3OC2c2cccnc2)cc1 (stereo not drawn)	> 100	> 100	> 100	> 100	> 100	> 100	> 100	> 100	> 100	> 100										
Cc1ccc(S(=O)(=O)OCCN(CCOS(=O)(=O)c2ccc(C)cc2)c2ccc(C=O)cc2)cc1	61	39.5	> 100	> 100	97.3	> 100	92.9	> 100	> 100	> 100										
Cn1c(CO)ccc1-c1ccc(-c2ccc(CO)[se]2)[se]1	0.0684	31.5	41.2	> 100	17.7	6.74	> 40	> 78.1	> 74.8	> 59.1										
CCc1c(O)nc(Nc2nc3ccccc3[nH]2)[nH]c1=O	> 100	> 100	> 100	> 100	> 100	> 100	> 100	> 100	> 100	> 100										
COc1cc2c(cc1O)C(Cc1ccc(OCc3ccccc3)c(OCc3ccccc3)c1)N(C(=O)NCCc1ccccc1)CC2 (stereo not drawn)	> 100	> 100	> 100	> 100	> 100	> 100	> 100	> 100	> 100	> 100										
O=C(Nc1ccc(-n2cc(-c3ccncc3)c(-c3ccc(O)c(Cl)c3)n2)cc1)Nc1cc(C(F)(F)F)cc(C(F)(F)F)c1	16.3	10.6	23.7	15.5	13.9	15.5	13.2	13.6	18.4	8.09	3680	2.59	3.55	3.02	3.73	4.06	4.08	3.3	3.63	2980
